Results reported in publication PMC11249239 (PLOS ONE, 2024).
“And” between values parts separate entries of the source, which are not always exact repeats. Equal values may be shown once. Read-outs that look alike come from different tables or passages of the source.

Tests used:
HDAC1 = target: T1, HDAC1 (Homo sapiens, UniProt Q13547); assay: In vitro HDAC isoform inhibition, purified recombinant HDAC1; assay type: biochemical; details: purified recombinant protein; ± margin of error of 95% confidence interval; read-out: IC50 HDAC inhibition activity in vitro, HDAC 1
T1 construct: purchased PBS Bioscience [sic] (San Diego, CA); host or cells: Sf9 insect cells / baculovirus
T1 sequence (Q13547 whole entry, canonical isoform): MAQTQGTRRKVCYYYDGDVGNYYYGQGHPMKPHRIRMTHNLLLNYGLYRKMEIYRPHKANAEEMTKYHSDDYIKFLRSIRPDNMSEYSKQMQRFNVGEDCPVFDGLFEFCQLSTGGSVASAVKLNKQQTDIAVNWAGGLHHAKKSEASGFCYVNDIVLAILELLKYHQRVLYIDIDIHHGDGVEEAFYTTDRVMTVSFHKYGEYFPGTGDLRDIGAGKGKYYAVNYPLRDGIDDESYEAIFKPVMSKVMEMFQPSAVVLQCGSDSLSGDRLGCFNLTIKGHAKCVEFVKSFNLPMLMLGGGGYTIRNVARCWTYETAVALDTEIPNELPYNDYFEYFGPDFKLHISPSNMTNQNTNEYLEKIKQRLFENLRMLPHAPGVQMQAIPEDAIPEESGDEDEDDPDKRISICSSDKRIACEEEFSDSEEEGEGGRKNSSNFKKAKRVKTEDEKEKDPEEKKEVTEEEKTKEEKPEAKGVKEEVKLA
Source text: In vitro HDAC enzyme inhibition assays utilized HeLa cell extract for pan-HDACs with the substrate Fluor-Lys following the manufacturer’s protocol (BIOMOL/ENZO, Plymouth Meeting, PA). For isoform assays, purified HDAC1, HDAC3, and HDAC6 recombinant proteins produced by expressing epitope-tagged full-length proteins in the sf9 baculovirus expression vector system were purchased from PBS Bioscience (San Diego, CA). […] The reaction commenced with the addition of HDAC substrate at room temperature and proceeded for 30 minutes. Termination of the reaction was achieved by adding 50 μL of Fluor de Lys (TM) Assay Developer. The fluorophore was excited at 360 nm and emitted light at 460 nm. Relative fluorescence was measured using a FlexStation II plate reader (Molecular Devices, Sunnyvale, CA).

HDAC8 = HDAC8 (Homo sapiens, UniProt Q9BY41); assay: HDAC8 activity inhibition (data not shown); assay type: biochemical
HDAC8, sequence (Q9BY41 whole entry, species assumed): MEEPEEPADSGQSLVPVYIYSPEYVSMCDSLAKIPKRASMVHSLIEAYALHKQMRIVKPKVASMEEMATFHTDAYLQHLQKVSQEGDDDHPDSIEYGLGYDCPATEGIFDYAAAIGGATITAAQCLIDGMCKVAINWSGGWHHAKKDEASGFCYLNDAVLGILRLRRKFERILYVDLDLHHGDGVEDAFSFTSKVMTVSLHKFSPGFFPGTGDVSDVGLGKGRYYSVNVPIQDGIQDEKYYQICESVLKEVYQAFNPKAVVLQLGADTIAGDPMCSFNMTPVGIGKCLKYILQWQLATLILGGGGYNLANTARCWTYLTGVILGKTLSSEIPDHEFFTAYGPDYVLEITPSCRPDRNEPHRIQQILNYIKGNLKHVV

[1] = system: MCF10A normal breast epithelial cells; assay: Cell growth inhibition (CCK8 cytotoxicity assay), MCF10A; assay type: cell-based; details: 48 h treatment, read-out: Average EC50 ± SD, cell growth inhibition
MCF7 (ER+) cells = assay: Cell growth inhibition (CCK8 cytotoxicity assay), MCF7; assay type: cell-based; details: Homo sapiens, 48 h treatment, read-out: Average EC50 ± SD, cell growth inhibition
MDA-MB-231 (TNB) cells = assay: Cell growth inhibition (CCK8 cytotoxicity assay), MDA-MB-231; assay type: cell-based; details: 48 h treatment, read-out: Average EC50 ± SD, cell growth inhibition
HCC-1937 (TNB) cells = assay: Cell growth inhibition (CCK8 cytotoxicity assay), HCC-1937; assay type: cell-based; details: 48 h treatment, read-out: Average EC50 ± SD, cell growth inhibition
MCF7 cells = assay: Cell cycle analysis by flow cytometry (FACS); assay type: cell-based
Procedure: Cells were treated with SP-1-303 for 24, 48, and 72 hours. DMSO and ionizing radiation (IR) were used on controls. The cell cycle distributions were analyzed by flow cytometry. The cells were harvested at the indicated times, washed twice with cold phosphate-buffered saline (PBS), and fixed with citrate/DMSO buffer for overnight. The cells were resuspended in PBS containing 40 μg/ml of DNase-free RNase A and 50 μg/ml of propidium iodide, and the cell cycle distributions were measured in a fluorescence-activated cell sorter (FACSort) from Becton Dickinson. DNA content was quantified using ModFit LT 3.0 software (Verity Software House, Inc).

[2] = system: acetylated histone 3 lysine 9 (H3K9ac); assay: Western blot, acetylation of histone H3 lysine 9; assay type: cell-based; details: MCF7 and MDA-MB-231; 1 μM; within 0.5 h
Source text: (§1) Following treatment of cells with SP-1-303 over a time course, total or nuclear proteins were extracted and analyzed on 4–20% trisglycine gradient sodium dodecyl sulfate polyacrylamide gel electrophoresis (SDS-PAGE). Subsequently, membranes were probed with antibodies targeting specific proteins in accordance with the manufacturers’ protocols, including ATM (ab78), p-BRCA1 (ab90528), BRCA1 (ab191042), p-p53/S15 (ab1431), acetylated H3K9 (ab12179) from Abcam, as well as p-ATM (# 5883) and p53 (#9282) from Cell Signaling, α-tubulin (T6793) and β-actin (A3854) from Sigma-Aldrich, ER-α (cat# MA1-80216, Invitrogen) and HDAC2 (BML-SA402. Enzo). Protein images were captured using ECL Prime Western Blotting Detection Reagents (Cat#. RPN2232, Amersham) and the Amersham Imager 600. For immunofluorescent analysis, formalin fixed cells were permeabilized with 0.1% Triton X-100 in TBS for 10 minutes at room temperature, followed by blocking with 1% Blocker BSA for 15 minutes at room temperature. Cells were then probed with a phospho-ATM monoclonal antibody (MA5-15185) and DyLight 488 goat anti-mouse IgG secondary antibody at room temperature. Actin was stained with DyLight 554 phalloidin, while nuclei were stained with 4’,6-diamidino-2-phenylindole dye (DAPI). Images were captured using a Nikon Epi Fluorescent microscopy.

acetylated α-tubulin = assay: Western blot, acetylation of α-tubulin; assay type: cell-based; details: MCF7 and MDA-MB-231; 1 μM; time dependent
Source text: as §1

p53 = assay: Western blot of nuclear extracts, p53 expression; assay type: cell-based; details: 1 μM, time course
Source text: as §1

phosphorylated BRCA1 = assay: Western blot, phosphorylated BRCA1; assay type: cell-based; details: 1 μM
Source text: as §1

Work on `Cc1[nH]c2ccccc2c1C1=C(c2c(C)[nH]c3ccccc23)C(=O)N(CCCCCCC(=O)NO)C1=O` [SP-1-303] yielded an IC50 (HDAC1) of 0.012 ± 0.001 µM, an IC50 (HDAC8) of 0.31 µM and an EC50 [1] of 12.2 µM. For the same compound, the EC50 ([1]; Homo sapiens, MCF-10A, 48 h) was roughly 12 µM, the EC50 (MCF7 (ER+) cells) was 0.34 ± 0.122 µM and the EC50 (MDA-MB-231 (TNB) cells) was 1.22 ± 0.243 µM. For the same compound, the EC50 (MDA-MB-231 (TNB) cells; Homo sapiens, MDA-MB-231, 48 h) was 1.2 µM, the EC50 (HCC-1937 (TNB) cells) was 2.48 µM and the EC50 (HCC-1937 (TNB) cells; Homo sapiens, HCC1937, 48 h) was 2.5 µM. The “% Cells in G1” value (MCF7 cells; 24 HR) was 89.44%, the “% Cells in G2/M” value (MCF7 cells; 24 HR) was 6.19% and the “% Cells in S” value (MCF7 cells; 24 HR) was 4.37%. For the same compound, the “% Cells in G2/M” value (MCF7 cells; 24 HR + IR) was 5.12%, the “% Cells in S” value (MCF7 cells; 24 HR + IR) was 3.91% and the “% Cells in G1” value (MCF7 cells; 24 HR + IR (combination with radiation)) was 91% and 90.97%. The “% Cells in G1” value (MCF7 cells; 48 HR) was 71.02%, the “% Cells in G2/M” value (MCF7 cells; 48 HR) was 6.75% and the “% Cells in S” value (MCF7 cells; 48 HR) was 22.24%. For the same compound, the “% Cells in G1” value (MCF7 cells; 72 HR) was 81.35%, the “% Cells in G2/M” value (MCF7 cells; 72 HR) was 6.21% and the “% Cells in S” value (MCF7 cells; 72 HR) was 12.45%. The “acetylation of histone H3 lysine 9 (H3K9)” value [2] was “significantly enhanced”, the “acetylation of α-tubulin” value (acetylated α-tubulin) was “gradually increased” and the “expression of p53” value (p53; MCF7) was “gradual increase”. The “expression of p53” value (p53; MDA-MB-231) was “no significant change”, the “phosphorylated BRCA1” value (phosphorylated BRCA1; MCF7, within 1h to 2h) was “induction” and the “phosphorylated BRCA1” value (phosphorylated BRCA1; MDA-MB-231) was “without significant alteration”.
